From patent US20250144054A1, “SMALL MOLECULE STAT3 INHIBITOR FOR TREATING TRIPLE NEGATIVE BREAST CANCER” (UNIVERSITY OF MARYLAND, BALTIMORE, priority 2022, published 2025)

How the values were obtained:
STAT1 = test: IFN-γ induced STAT1 phosphorylation, Western blot, MDA-MB-231 cells; type: cell-based, human; details: pretreated 2 hours, 50 ng/ml IFN-γ 30 minutes
Description: (A) The chemical structures of LLL12B and LLL12. The carbamate ester bond of LLL12B is hydrolytically cleaved by the tumor-associated plasmin to release LLL12. (B) SUM159 cells were seeded in a 6-well plate and treated with LLL12B for 8 hours. Cells were stained with Phospho-Stat3 (Tyr705) and DAPI (indicated by arrows). Green: P-STAT3 (Y705); Blue: DAPI. T47D (C) and MDA-MB-231 (D) breast cancer cells were pretreated with DMSO or LLL12B in a serum-free medium for 2 hours and stimulated with 50 ng/ml of IL-6, IFN-γ, or EGF for additional 30 minutes. Cells were collected and analyzed by Western blot. GAPDH served as a protein loading control.
(§1) Western blot. Cells were collected and total protein was extracted using cell lysis buffer (Cell Signaling Technology, Danvers, MA, USA). Protein concentration was determined using the Pierce BCA Protein Assay Kit (Thermo Fisher Scientific, Waltham, MA, USA) according to the manufacturer's instructions. Equal amounts of protein were separated by 10% SDS-PAGE gels and transferred to PVDF membranes. Membranes were blocked in 5% non-fat milk at room temperature and probed with specific antibodies P-STAT3 (Y705), STAT3, Cyclin D1, Cleaved Caspase-3, P-STAT1 (Y701), STAT1, P-ERK, ERK or GAPDH (1:1000, Cell Signaling Technology, Danvers, MA, USA) at 4° C. overnight. […]

STAT3 [1] = test: Western blot of P-STAT3 (Y705), STAT3, Cyclin D1, Cleaved Caspase-3 in SUM159 cells; type: cell-based, human; details: SUM159, overnight, vs DMSO
Description: (A) MDA-MB-231, SUM159, and 4T1 cell lines were treated with DMSO or LLL12B overnight and the expression levels of P-STAT3 (Y705), STAT3, Cyclin D1, and Cleaved Caspase-3 were analyzed by Western blot. GAPDH served as a protein loading control. (B) MDA-MB-231 cells were treated with DMSO or C188-9 overnight and the expression levels of P-STAT3 (Y705), STAT3, Cyclin D1, and Cleaved Caspase-3 were analyzed by Western blot. (C) MDA-MB-231, SUM159, and 4T1 cells were seeded in a 96-well plate and treated with DMSO or LLL12B for 5 hours and a Caspase-3/7 Fluorescence Assay Kit was used to detect the activation of caspase-3/7. (D) MDA-MB-231, SUM159, and 4T1 cell lines were treated with DMSO or LLL12B for 8-12 hours, and flow cytometry was performed to analyze annexin V and PI staining. The quantification of apoptotic cells was shown in the right panel. ** P<0.01, *** P<0.001 and ****P<0.0001.
SiRNA and transfection. STAT3 siRNA and Negative Control siRNA (Cell Signaling Technology, Danvers, MA, USA) were used to knock down STAT3 in MDA-MB-231, SUM159, and 4T1 cell lines. Cells were transfected with STAT3 siRNA or Negative Control siRNA using Lipofectamine RNAiMAX (Invitrogen, Carlsbad, CA, USA) according to the manufacturer's instructions. After 72 hours, cell viability was examined by MTT cell viability assay, and the transfection efficiency was examined by western blot.
as §1

PANC-1 cells = test: MTT cell viability assay, PANC-1 cells; type: cell-based, human; details: PANC-1, 3 days
Description: The human pancreatic cancer cell lines HPAC and PANC-1 were seeded and allowed to attach for 24 hours. Then cells were treated with different concentrations of LLL12B for 3 days and the cell viability was determined by MTT cell viability assay.

STAT3 [2] = target: STAT3 (Homo sapiens, UniProt P40763); details: refs [25,27,28]; cited from earlier work
Sequence of STAT3 (Homo sapiens, UniProt P40763) (P40763 whole entry, species assumed): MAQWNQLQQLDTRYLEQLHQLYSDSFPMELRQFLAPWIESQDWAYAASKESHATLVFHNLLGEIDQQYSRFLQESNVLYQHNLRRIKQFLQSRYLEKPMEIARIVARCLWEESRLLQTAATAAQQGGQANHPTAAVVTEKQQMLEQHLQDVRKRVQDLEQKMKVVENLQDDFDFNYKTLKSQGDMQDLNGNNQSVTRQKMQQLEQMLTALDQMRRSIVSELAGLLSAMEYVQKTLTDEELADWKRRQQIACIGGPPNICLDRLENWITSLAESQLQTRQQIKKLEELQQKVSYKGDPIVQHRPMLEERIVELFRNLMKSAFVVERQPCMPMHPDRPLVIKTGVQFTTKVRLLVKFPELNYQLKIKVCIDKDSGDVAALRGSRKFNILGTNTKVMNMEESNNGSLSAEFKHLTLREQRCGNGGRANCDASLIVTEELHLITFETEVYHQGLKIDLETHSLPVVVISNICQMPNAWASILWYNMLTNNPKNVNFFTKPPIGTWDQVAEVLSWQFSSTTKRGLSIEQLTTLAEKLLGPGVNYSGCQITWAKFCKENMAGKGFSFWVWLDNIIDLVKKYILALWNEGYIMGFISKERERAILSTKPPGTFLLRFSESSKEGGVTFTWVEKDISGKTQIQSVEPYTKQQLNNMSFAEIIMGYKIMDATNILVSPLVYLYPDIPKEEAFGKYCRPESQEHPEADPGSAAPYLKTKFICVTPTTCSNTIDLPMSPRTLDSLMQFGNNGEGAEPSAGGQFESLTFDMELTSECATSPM

CN(C)C(=O)Oc1cccc2c1C(=O)c1cccc(S(N)(=O)=O)c1C2=O [LLL12B]
induction of P-STAT1 (Y701) stimulated by IFN-γ (STAT1): did not inhibit | Cyclin D1 expression (STAT3 [1]): decreased | expression of Cleaved Caspase-3 (STAT3 [1]): enhanced | phosphorylation of STAT3 (STAT3 [1]): decreased | cell viability (PANC-1 cells): significantly inhibits | binding to the pTyr705 binding site of STAT3 (STAT3 [2]): binds directly
